Assay results reported in PMC5887109, “Unravelling the Molecular Determinants of Bee Sensitivity to Neonicotinoid Insecticides” (Current Biology, 2018).

How the values were obtained:
[1] = system: transgenic Drosophila expressing honeybee CYP9Q1; test: Insecticide bioassay of transgenic Drosophila expressing CYP9Q1; format: in vivo, Drosophila melanogaster; conditions: Act5C-GAL4 driven; ratio of LC50 values
Protocol: (§1) Fly lines were made homozygous for the transgene integrations. […] LC50 values were calculated as above.

[2] = target: nicotinic acetylcholine receptor (nAChR); test: [3H]imidacloprid displacement, bumble bee head membrane preparations; format: binding, B. terrestris; conditions: bumble bee head membranes; 95% CI given in text
Protocol: (§2) [^3H]imidacloprid (specific activity 1.406 GBq μmol^−1) displacement studies were conducted using membrane preparations isolated from frozen (−80°C) honeybee and bumble bee heads, respectively, following previously published protocols. Briefly, bee heads weighing 10cg were homogenized in 200cml ice-cold 0.1cM potassium phosphate buffer, pH 7.4 containing 95cmM sucrose using a motor-driven Ultra Turrax blender. […] Assays were performed in a 96-well microtiter plate with bonded GF/C filter membrane (Packard UniFilter-96, GF/C) and consisted of 200 μL of homogenate (0.48cmg protein), 25 μL of [^3H]imidacloprid (576cpM) and 25 μL of competing ligand. Ligand concentrations used ranged from 0.001 to 10c000cnM and were tested at least in duplicate per competition assay. The assay was started by the addition of homogenate and incubated for 60cmin at room temperature. Bound [^3H]imidacloprid was quantified by filtration into a second 96-well filter plate (conditioned with ice-cold 100cmM potassium phosphate buffer, pH 7.4 (including BSA 5cg liter−1)) using a commercial cell harvester (Brandel). […] Each well was then loaded with 25 μL of scintillation cocktail (Microszint-O-Filtercount, Packard) and the plate counted in a Topcount scintillation counter (Packard). Non-specific binding was determined using a final concentration of 10cμM unlabelled imidacloprid. […]

Bombus terrestris = test: Acute contact (topical) insecticide bioassay of bumble bees; conditions: no synergist, 48 hours after application
Protocol: (§3) Acute contact insecticide assays were performed on female A. mellifera following standard methods OECD 2013 [30]. Bioassays of B. terrestris were based on the OECD guidelines developed for honeybees but with bees assayed in individual Nicot cages. Bees were starved of sucrose solution for up to 2 hr to encourage feeding during the experiment. […] Controls were fed a solution of sucrose containing a concentration of acetone matching that of the highest treatment concentration. After 4-6 hr the syringes were assessed to see if bees had consumed the insecticide-sucrose solution. Those that had not consumed all of the solution were excluded from the experiment. Mortality was assessed 48 hr after feeding and lethal concentrations (LC50 values) were calculated by probit analysis using Genstat version 16 (VSN International). For synergist bioassays, B. terrestris or A. mellifera workers were first treated with 20 μg of piperonyl butoxide or 1 μg of aminobenzotriazole applied to the dorsal thorax. Synergist bioassays included an additional control group treated only with the synergist. 1 hr after synergist application, bees were then treated with the appropriate insecticide dosage as above.

A. mellifera = test: Acute contact (topical) insecticide bioassay of honeybees, with or without ABT; conditions: honeybees pretreated with ABT (1-aminobenzotriazole)
Protocol: as §3

honeybees = conditions: depends on route of exposure; cited from earlier work
[3] = system: transgenic Drosophila expressing B. terrestris CYP9Q4; test: Insecticide bioassay of transgenic Drosophila expressing CYP9Q4; format: in vivo, Drosophila melanogaster; conditions: Act5C-GAL4 driven; ratio of LC50 values
Protocol: as §1

[4] = target: nicotinic acetylcholine receptor (nAChR); test: [3H]imidacloprid displacement, honeybee head membrane preparations; format: binding, A. mellifera; conditions: honeybee head membranes; 95% CI given in text
Protocol: as §2

[5] = system: bumble bees (Bombus terrestris); test: Bumble bee contact and oral bioassays taken together, EPA rating; conditions: depends on route of exposure
Protocol: as §3

[6] = system: transgenic Drosophila expressing B. terrestris CYP9Q5; test: Insecticide bioassay of transgenic Drosophila expressing CYP9Q5; format: in vivo, Drosophila melanogaster; conditions: Act5C-GAL4 driven; ratio of LC50 values
Protocol: as §1

CYP6AS5 = test: Metabolism by recombinant CYP6AS5/CPR microsomes, LC-MS/MS; conditions: thiacloprid hydroxylation
Text: All bee P450 (see Table S3 for accession numbers) and house fly NADPH-dependent cytochrome P450 reductase (CPR) (GenBank accession number Q07994) genes were obtained by gene synthesis (Geneart, CA, USA) and inserted into the pDEST8 expression vector (Invitrogen). Codon optimization of all bee genes was used to optimize expression in lepidopteran cell lines. The PFastbac1 vector with no inserted DNA was used to produce a control virus. The recombinant baculovirus DNA was constructed and transfected into Trichoplusia ni (High five cells, Thermo Fisher) using the Bac-to-Bac baculovirus expression system (Invitrogen) according to the manufacturer’s instructions. The titer of the recombinant virus was determined following protocols of the supplier. […] The protein content of samples was determined using Bradford reagent (Sigma) and bovine serum albumin (BSA) as a reference.
The total assay volume was 200 μL using three replicates for each data point. […] The assay was stopped by the addition of ice-cold acetonitrile (to 80% final concentration), centrifuged for 10 min at 3000 g and the supernatant subsequently analyzed by tandem mass spectrometry as described previously. […] Substrate turnover from two independent reactions were plotted versus controls and Michaelis-Menten kinetics determined using GraphPad Prism version 7 (GraphPad Software, CA, USA).

| SMILES | resistance compared to control flies without the transgene [1] | IC50 [2] | LD50 (Bombus terrestris) | fold more sensitive after pretreatment with ABT (A. mellifera) | EPA toxicity category (honeybees) | resistance compared to control flies without the transgene [3] | IC50 [4] | EPA toxicity category [5] | resistance compared to control flies without the transgene [6] | metabolism by the recombinant P450 (in words) (CYP6AS5) |
| --- | --- | --- | --- | --- | --- | --- | --- | --- | --- | --- |
| O=[N+]([O-])NC1=NCCN1Cc1ccc(Cl)nc1 [imidacloprid] | no significant differences in sensitivity | 0.71 nM | 0.38 μg/bee | 2.7 fold | highly toxic | no significant differences | 1.2 nM | highly toxic | no significant differences | – |
| N#C/N=C1\SCCN1Cc1ccc(Cl)nc1 [thiacloprid] | – | 0.62 nM | > 100 μg/bee | – | slightly toxic” or “practically non-toxic | – | 1.1 nM | slightly toxic” or “practically non-toxic | – | weak activity |
